Assay [1] concerns resistant replicon cell lines (w1, w3 and w4). The assay is described as follows: Sensitivity of resistant replicon cell lines, HCV replicon RNA by quantitative RT-PCR. To be noted: for EC50: Hepatitis C virus, 72 h, HCV replicon RNA by RT-PCR, 72 hours of treatment; for Fold over wild-type: fold of EC50. The format is cell-based. Here is the method:
(§1) A replicon-containing cell line (I389/NS3-3) was used to select the resistant replicons against Compound 1 (Lohmann et al., Science 285:110-113, 1999). Replicon cells were plated in a 100 mm dish, under a subconfluent condition (approximately at 40% confluency). After 24 hours, Compound 1 was added to the cells with the final concentration of 2 μM in the medium containing 1 mg of G418 per ml. After 3 weeks, colonies of cells resistant to Compound 1 were isolated and expanded. Three independent cell lines (w1, w3 and w4) with growth rate similar to that of the parental replicon cells were selected to test for their sensitivity to Compound 1.
(§2) To confirm that viral RNAs in the selected cell lines were resistant to Compound 1, the cells were treated with the compound with concentrations from 0.05 to 5 μM. After 72-hours of treatment, cells were lysed and the cell lysates were diluted with RNase-free water, from which 5 μl was used to quantify the HCV replicon RNA by using real-time quantitative reverse transcriptase (RT) PCR assay (Cheney et al., Virology 297:298-306, 2002). Same quantitative RT-PCR protocol was used to determine the level of the cellular glyceraldhehyde-3-phosphate dehydrogenase (GAPDH) RNA in the same cell lysate, which served as an internal control to normalize the difference of total RNAs. To calculate the EC50 values of Compound 1 against the resistant cell lines, the relative cycle threshold (CT) for the HCV and GAPDH was determined. […] Identification of the Molecular Target
In general terms: Replicon systems follow genome replication, usually without infectious particles.

Assay [2] relates to parental replicon cells (I389/NS3-3). Kind of assay: Sensitivity of parental (wild-type) replicon cells, HCV replicon RNA by quantitative RT-PCR. The format is cell-based. To be noted: Wild-type replicon cell line; for EC50: Hepatitis C virus, HCV replicon RNA by RT-PCR, 72 hours of treatment; for Fold over wild-type: fold of EC50. Here is the method: as §1, §2
The target of the next assay is T1, NS5B polymerase (Hepatitis C virus genotype 1b, UniProt Q9WMX2, C2735Y).
T1 construct: a single nucleotide change in the region of viral NS5B polymerase; expressed in transfected cells; host or cells: HCV subgenomic replicon cells (parental and Compound 1-resistant lines w1, w3, w4)
Kind of assay: Identification of the molecular target (sequencing of resistant replicons). The arrangement: species or system HCV. The settings on record: eight cDNA clones of three resistant cell lines (w1, w3 and w4). Here is the method:
To determine the targeted viral gene of Compound 1, total RNA was isolated from the resistant cell lines and from the parental replicon cells. The cDNA fragment encoding the HCV nonstructural proteins (NS3-NS5B) was amplified from the total cellular RNA by using a Thermoscript RT-PCR kit (Invitrogen). The cDNA fragments were cloned into pCR4-TOPO vector by using a TOPO TA cloning kit (Invitrogen). The entire DNA sequence of the HCV nonstructural coding region was determined for multiple independent cDNA clones.
Eight different cDNA clones were generated from three independently cell lines selected by Compound 1 (cell lines w1, w3 and w4) and three cDNA clones from the parental cell line.

Data on 2 compounds can be found in patent publication US20060217390A1, “Cycloalkl, aryl and heteroaryl amino isothiazoles for the treatment of Hepatitis C virus” (priority 2005, published 2006).

What is called EC50 is the concentration at which the effect is half-maximal.

T1 sequence (Q9WMX2 2420-3010 C2735Y): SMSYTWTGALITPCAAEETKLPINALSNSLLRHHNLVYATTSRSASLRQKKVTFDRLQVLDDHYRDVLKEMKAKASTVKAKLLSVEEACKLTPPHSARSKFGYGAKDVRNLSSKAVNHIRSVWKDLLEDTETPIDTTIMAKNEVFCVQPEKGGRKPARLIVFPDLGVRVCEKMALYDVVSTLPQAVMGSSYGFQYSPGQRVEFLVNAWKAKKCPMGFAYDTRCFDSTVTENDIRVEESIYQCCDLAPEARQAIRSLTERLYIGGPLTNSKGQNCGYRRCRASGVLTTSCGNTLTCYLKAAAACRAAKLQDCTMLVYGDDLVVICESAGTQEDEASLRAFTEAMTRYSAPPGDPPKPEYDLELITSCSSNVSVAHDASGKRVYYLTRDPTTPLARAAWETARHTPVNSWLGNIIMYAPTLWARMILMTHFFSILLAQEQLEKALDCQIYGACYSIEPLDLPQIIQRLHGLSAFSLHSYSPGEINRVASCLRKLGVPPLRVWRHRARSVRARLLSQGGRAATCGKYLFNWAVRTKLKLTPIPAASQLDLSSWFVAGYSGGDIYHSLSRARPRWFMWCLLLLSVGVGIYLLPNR

In the case of `C[C@@]1(O)[C@H](O)[C@@H](CO)O[C@H]1n1cnc2c(N)ncnc21` [2′-C-methyl-adenosine], the concentration for a half-maximal effect (EC50) stood at 160 nM in assay [1] (resistant cell line W1), 260 nM in assay [1] (resistant cell line W3), 310 nM in assay [1] (resistant cell line W4) and 360 nM in assay [2]. Besides, in assay [1] (cell lines w1, w3, w4 selected with Compound 1), the “sensitivity of resistant cell lines to inhibition” value is on record as “still sensitive to inhibition”. The Fold over wild-type is 0.4 in assay [1] (resistant cell line W1), 0.7 in assay [1] (resistant cell line W3), 0.9 in assay [1] (resistant cell line W4) and 1 in assay [2].
On to `N#Cc1c(Nc2cc(Cl)cc(Cl)c2)s[nH]c1=O` [Compound 1], for which the EC50 in assay [1] (resistant cell line W1) was determined as 3680 nM; in assay [1] (resistant cell line W3), 2030 nM; in assay [1] (resistant cell line W4) it was 4620 nM; in assay [2], 70 nM. The Fold over wild-type in assay [1] (resistant cell line W1) came to 52; in assay [1] (resistant cell line W3) it was 29; in assay [1] (resistant cell line W4), 66; in assay [2], 1. Besides, the “mutation present in cDNA clones of cell lines selected by the compound” value on NS5B polymerase was “cysteine at position 316 of NS5B polymerase to a tyrosine residue”.
